# Data published in PMC7272715, “Functional Characterization of Pseudoidium neolycopersici Photolyase Reveals Mechanisms Behind the Efficacy of Nighttime UV on Powdery Mildew Suppression” (Frontiers in Microbiology, 2020).
# Molecular target: T1, PnPHR1 (P. neolycopersici photolyase, PN0912) (Erysiphe neolycopersici, UniProt A0A7D3USA5)
# T1 construct: GenBank MT277362-MT277364 printed for the three genes together (MT277363 only by order of listing)
# T1 sequence (A0A7D3USA5 1-634): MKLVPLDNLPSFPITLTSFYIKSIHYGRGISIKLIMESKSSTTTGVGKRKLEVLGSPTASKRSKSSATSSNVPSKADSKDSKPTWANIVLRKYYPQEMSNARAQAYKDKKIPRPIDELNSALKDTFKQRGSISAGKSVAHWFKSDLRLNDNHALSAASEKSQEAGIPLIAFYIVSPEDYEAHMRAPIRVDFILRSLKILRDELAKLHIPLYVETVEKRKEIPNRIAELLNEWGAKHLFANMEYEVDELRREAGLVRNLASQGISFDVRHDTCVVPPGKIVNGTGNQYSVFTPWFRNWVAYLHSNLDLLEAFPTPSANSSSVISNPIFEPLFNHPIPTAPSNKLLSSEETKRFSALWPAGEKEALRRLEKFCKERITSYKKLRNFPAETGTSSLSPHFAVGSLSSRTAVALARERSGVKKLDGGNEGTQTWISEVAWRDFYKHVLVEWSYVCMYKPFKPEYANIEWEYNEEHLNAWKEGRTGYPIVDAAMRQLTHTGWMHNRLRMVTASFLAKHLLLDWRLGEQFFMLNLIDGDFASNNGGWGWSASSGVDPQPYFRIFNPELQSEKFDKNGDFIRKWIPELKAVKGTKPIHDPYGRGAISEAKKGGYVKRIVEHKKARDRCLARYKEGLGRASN
# Assay: absorption and fluorescence spectra of purified protein and of chromophore released by heat
# Format: binding
# Conditions: pH 8.0 storage buffer, 22 °C; intrinsic chromophore co-purified from E. coli; identity inferred from emission (excitation 370 nm); no clear absorption maximum
structure (smiles),measurement,value
Cc1cc2c(cc1C)N(C[C@H](O)[C@H](O)[C@H](O)COP(=O)(O)OP(=O)(O)OC[C@H]1O[C@@H](n3cnc4c(N)ncnc43)[C@H](O)[C@@H]1O)c1[nH]c(=O)[nH]c(=O)c1N2 [FADH^–],absorption and fluorescence spectra of purified protein and of chromophore relea,"could only reveal the presence of a reduced form of FAD, i.e., FADH^–"
